Patent publication US20080249042A1, “All-Trans-Retinol: All-Trans-13,14-Dihydroretinol Saturase and Methods of Its Use” (UNIVERSITY OF WASHINGTON, priority 2004, published 2008)

Experiments:
LRAT = molecular target: T1, LRAT (Mus musculus, UniProt Q9JI60); assay: Esterification assay, RPE microsomes and HEKK-LRAT cell homogenate; type: biochemical; settings: 10 min, 37° C.
T1 construct: For expression Lrat coding region was amplified using the primers; expressed in transfected cells; membrane homogenate
T1 sequence (Q9JI60 1-231): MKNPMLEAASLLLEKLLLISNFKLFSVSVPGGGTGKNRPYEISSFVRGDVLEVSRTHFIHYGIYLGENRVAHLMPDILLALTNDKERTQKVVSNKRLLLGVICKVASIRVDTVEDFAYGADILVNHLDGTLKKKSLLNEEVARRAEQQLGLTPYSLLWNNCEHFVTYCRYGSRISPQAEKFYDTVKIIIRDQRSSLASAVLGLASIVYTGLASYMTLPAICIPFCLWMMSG
Source text: Inducible-Expression Of LRAT Protein in HEKK Cells. Mouse Lrat cDNA was cloned as described elsewhere. For expression Lrat coding region was amplified using the primers: 5′-[…]-3′ (SEQ ID NO: 11) and […] (SEQ ID NO: 12). The PCR product was ligated into the pCR-Blunt II-TOPO vector (Invitrogen) and then subcloned into the EcoRI site of pCDNA4/TO. TetR-expressing HEKK cells were transfected with the pCDNA4/TO-Lrat construct and selected with zeocin. Stable clones were verified for expression of Lrat protein using the anti-LRAT monoclonal antibody described elsewhere (2).
Esterification assay of all-trans-retinol and all-trans-13,14-dihydroretinol. HEKK-LRAT cells were homogenized in 250 mM sucrose, 10 mM Tris-HCl with the aid of a douncer. RPE microsomes were prepared as previously described. Stecher, et al. J Biol Chem 274:8577-8585, 1999. A substrate solution, 2 μL of 1 mM stock in DMF, was added to a 1.5 ml Eppendorf tube containing 20 μL of 10% BSA and 20 μL of UV-treated RPE microsomes or 100 μL of membrane homogenate of HEKK-LRAT cells and 10 mM BTP (pH 7.5) buffer to a total volume of 200 μL. […] Then 100 μL of the hexane extract was analyzed by normal-phase HPLC, using first 0.5% ethyl acetate in hexane for 10 min to separate retinyl esters and then 20% ethyl acetate in hexane for an additional 10 min to separate retinols. Elution was monitored at 290 nm and 325 nm.

mouse RetSat = molecular target: T2, mouse RetSat (Mus musculus, UniProt Q64FW2); assay: Saturase activity in homogenized HEKK-RetSat cells; type: biochemical; settings: membrane homogenate, 40 μM substrate, 1 hr
T2 construct: expressed in transfected cells
T2 sequence (Q64FW2 26-609): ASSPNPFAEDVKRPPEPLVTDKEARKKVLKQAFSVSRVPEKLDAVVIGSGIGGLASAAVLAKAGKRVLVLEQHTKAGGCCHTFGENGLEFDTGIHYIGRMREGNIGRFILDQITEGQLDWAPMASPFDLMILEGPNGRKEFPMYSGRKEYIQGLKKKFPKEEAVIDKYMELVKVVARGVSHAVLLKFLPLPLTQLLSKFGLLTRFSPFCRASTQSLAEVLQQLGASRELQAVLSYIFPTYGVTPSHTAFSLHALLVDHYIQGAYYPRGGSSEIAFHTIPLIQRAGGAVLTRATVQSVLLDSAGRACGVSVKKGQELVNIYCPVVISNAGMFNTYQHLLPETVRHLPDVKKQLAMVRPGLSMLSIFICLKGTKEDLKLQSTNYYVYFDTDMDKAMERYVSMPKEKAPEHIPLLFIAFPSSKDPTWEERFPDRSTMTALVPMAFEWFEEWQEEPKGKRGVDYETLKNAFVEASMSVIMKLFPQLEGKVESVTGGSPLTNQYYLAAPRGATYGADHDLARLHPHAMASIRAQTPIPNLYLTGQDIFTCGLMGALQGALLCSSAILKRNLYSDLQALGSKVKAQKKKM
Procedure: Enzymatic assays for saturase activity in homogenized cells. Cells were homogenized with 15 mM Tris-HCl, pH 8.0, containing 10 mM dithiothreitol and 0.32 M sucrose. One aliquot of cells was boiled for 10 min at 95° C. as a negative control. Cell aliquots of 200 μl were supplemented with 1 mM ATP and 40 μM all-trans-retinol final concentrations. Some aliquots were also supplemented with 0.4 mM NADH or 0.4 mM NADPH to regenerate the redox state of the reaction. The cell homogenate was incubated with retinol substrate with shaking at 37° C. for 1 hr in the dark. This was followed by the extraction of retinoids with one volume of methanol and two volumes of hexane. The organic phase was dried and resuspended in hexane and then examined by normal-phase HPLC.

In the case of `CC1=C(/C=C/C(C)=C/C=C/C(C)CCO)C(C)(C)CCC1` (stereo not drawn) [all-trans-DROL, all-trans-13,14-dihydroretinol], the “Esterification by LRAT (substrate activity)” value (LRAT) is reported as “as good a substrate for LRAT as all-trans-retinol”.

For `CC1=C(/C=C/C(C)=C/C=C/C(C)=C/CO)C(C)(C)CCC1` [all-trans-ROL, all-trans-retinol], the “all-trans-13,14-dihydroretinol produced” value (mouse RetSat) was “little”.
